Assay results from patent US12539312B2, “Use of materials made of cross-linked β-cyclodextrins for the treatment of tuberculosis” (INSERM (INSTITUT NATIONAL DE LA SANTÉ ET DE LA RECHERCHE …, priority 2019, dated 2026).

Legend:
Mtb H37Rv = test: Lung mycobacterial load in Mtb-challenged mice (CFU counting); format: in vivo, Mycobacterium tuberculosis; conditions: Booster co-loaded with ETH in pβCD
[1] = Phase solubility study, ETH; conditions: 1:1 stoichiometry assumed, from phase solubility diagram
[2] = Phase solubility study, Booster; conditions: 1:1 stoichiometry assumed; BDM43266 per FIG. 2B
BMDM = test: Apoptosis/necrosis assay (Annexin V and DNA intercalating dye); format: cell-based, murine; conditions: 24 hours incubation

Row | SMILES | boosting efficacy on ETH (Mtb H37Rv) | K1:1 (binding constant) in the case of ETH [1] | K1:1 (binding constant) in the case of Booster [2] | Annexin V / DNA intercalating dye staining (BMDM)
1 | O=C(CCCC(F)(F)F)N1CCC(c2nc(-c3nccs3)no2)CC1 [BDM41906] | No difference was observed concerning the boosting efficacy between BDM41906 and BDM43266 | – | – | –
2 | OC[C@H]1O[C@@H]2O[C@H]3[C@H](O)[C@@H](O)[C@@H](O[C@H]4[C@H](O)[C@@H](O)[C@@H](O[C@H]5[C@H](O)[C@@H](O)[C@@H](O[C@H]6[C@H](O)[C@@H](O)[C@@H](O[C@H]7[C@H](O)[C@@H](O)[C@@H](O[C@H]1[C@H](O)[C@H]2O)O[C@@H]7CO)O[C@@H]6CO)O[C@@H]5CO)O[C@@H]4CO)O[C@@H]3CO [αCD, α-cyclodextrin] | – | 24 | 100 | –
3 | CN[C@@H]1C[C@H]2O[C@@](C)([C@@H]1OC)n1c3ccccc3c3c4c(c5c6ccccc6n2c5c31)C(=O)NC4 [staurosporine] | – | – | – | late apoptotic, double positive cells
4 | OC[C@H]1O[C@@H]2O[C@H]3[C@H](O)[C@@H](O)[C@@H](O[C@H]4[C@H](O)[C@@H](O)[C@@H](O[C@H]5[C@H](O)[C@@H](O)[C@@H](O[C@H]6[C@H](O)[C@@H](O)[C@@H](O[C@H]7[C@H](O)[C@@H](O)[C@@H](O[C@H]8[C@H](O)[C@@H](O)[C@@H](O[C@H]9[C@H](O)[C@@H](O)[C@@H](O[C@H]1[C@H](O)[C@H]2O)O[C@@H]9CO)O[C@@H]8CO)O[C@@H]7CO)O[C@@H]6CO)O[C@@H]5CO)O[C@@H]4CO)O[C@@H]3CO [γCD, γ-cyclodextrin] | – | 47 | 256 | –
5 | OC[C@H]1O[C@@H]2O[C@H]3[C@H](O)[C@@H](O)[C@@H](O[C@H]4[C@H](O)[C@@H](O)[C@@H](O[C@H]5[C@H](O)[C@@H](O)[C@@H](O[C@H]6[C@H](O)[C@@H](O)[C@@H](O[C@H]7[C@H](O)[C@@H](O)[C@@H](O[C@H]8[C@H](O)[C@@H](O)[C@@H](O[C@H]1[C@H](O)[C@H]2O)O[C@@H]8CO)O[C@@H]7CO)O[C@@H]6CO)O[C@@H]5CO)O[C@@H]4CO)O[C@@H]3CO [βCD, β-Cyclodextrin] | – | 100 | 514 | –
